{"source": "paper PMC7693160", "about": "(Pharmaceutics, 2020)", "origin": "cited, not measured here", "parameters_in_all_cases": "method as in Kumar et al. 43", "details_in_all_cases": "ref Kumar et al. 43, read-out: Perpetrator in vitro Ki; cited from earlier work", "key": {"[1]": {"system": "CYP2C9 1*/1*"}, "[2]": {"system": "CYP2C9 3*/3*"}, "[3]": {"system": "CYP2C9 1*/3*"}}}
{"molecule": "OC(Cn1cncn1)(Cn1cncn1)c1ccc(F)cc1F", "note": "[Fluconazole, fluconazole]", "values": [{"measurement": "Ki", "setting": "[1]", "value": 11, "unit": "µM"}, {"measurement": "Ki", "setting": "[2]", "value": 23, "unit": "µM"}, {"measurement": "Ki", "setting": "[3]", "value": 17, "unit": "µM"}]}
